In patent US20250268903A1, “RXFP1 AGONISTS” (BRISTOL-MYERS SQUIBB COMPANY, priority 2021, published 2025):

molecular target: T1, human RXFP1 (Homo sapiens, UniProt Q9HBX9); assay: hRXFP1 HEK293 cAMP assay (HTRF); type: cell-based; conditions: HEK293 cells stably expressing human RXFP1, 30 min at room temperature
T1 construct: expressed in transfected cells
T1 sequence (Q9HBX9 1-757): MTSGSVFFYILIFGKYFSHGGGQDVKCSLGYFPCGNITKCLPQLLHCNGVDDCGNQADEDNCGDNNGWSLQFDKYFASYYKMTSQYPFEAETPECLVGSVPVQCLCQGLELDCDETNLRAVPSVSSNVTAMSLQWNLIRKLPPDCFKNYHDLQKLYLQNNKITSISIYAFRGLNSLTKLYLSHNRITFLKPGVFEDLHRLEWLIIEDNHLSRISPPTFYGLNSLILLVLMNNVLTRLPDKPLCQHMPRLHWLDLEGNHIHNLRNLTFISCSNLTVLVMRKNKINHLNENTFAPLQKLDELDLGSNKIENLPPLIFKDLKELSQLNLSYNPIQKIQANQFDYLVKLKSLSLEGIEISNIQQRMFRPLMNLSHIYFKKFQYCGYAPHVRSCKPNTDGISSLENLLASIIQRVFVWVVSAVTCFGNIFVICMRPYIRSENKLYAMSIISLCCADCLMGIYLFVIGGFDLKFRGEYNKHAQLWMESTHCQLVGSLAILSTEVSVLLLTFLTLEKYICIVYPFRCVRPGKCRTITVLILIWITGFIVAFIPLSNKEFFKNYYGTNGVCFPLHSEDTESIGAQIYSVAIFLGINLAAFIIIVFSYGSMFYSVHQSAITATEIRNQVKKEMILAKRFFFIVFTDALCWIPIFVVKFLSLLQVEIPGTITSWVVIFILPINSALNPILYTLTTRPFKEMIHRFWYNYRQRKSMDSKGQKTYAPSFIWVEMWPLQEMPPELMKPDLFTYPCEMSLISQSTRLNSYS
Procedure: RXFP1 Cyclic Adenosine Monophosphate (cAMP) Assays. […] Cells were dissociated and suspended in assay buffer. The assay buffer was HBSS buffer (with calcium and magnesium) containing 20 mM HEPES, 0.05% BSA, and 0.5 mM IBMX. Cells (3000 cells per well, except 1500 cell per well for HEK293 cells stably expressing human RXFP1) were added to 384-well Proxiplates (Perkin-Elmer). Cells were immediately treated with test compounds in DMSO (2% final) at final concentrations in the range of 0.010 nM to 50 μM. Cells were incubated for 30 min at room temperature. The level of intracellular cAMP was determined using the HTRF HiRange cAMP assay reagent kit (Cisbio) according to manufacturer's instructions. Solutions of cryptate conjugated anti-cAMP and d2 fluorophore-labelled cAMP were made in a supplied lysis buffer separately. Upon completion of the reaction, the cells were lysed with equal volume of the d2-cAMP solution and anti-cAMP solution. […] The potency and activity of a compound to […] cAMP production was then determined by fitting to a 4-parametric logistic equation from a plot of cAMP level versus compound concentrations.

Row | Compound | EC50 [µM]
1 | COc1ccc(CCCO)cc1C(=O)NC1C2CCC(/C2=C/C2CCCOC2)[C@@H]1C(=O)Nc1ccc(F)c(C(F)(F)F)c1 (single isomer, unassigned) [Example 171, (7Z)-N-[4-fluoro-3-(trifluoromethyl)phe-nyl]-3-[5-(3-hydroxypropyl)-2-methoxybenzamido]-7-[(oxan-3-yl)methylidene]bicy-clo[2.2.1]heptane-2-carboxamide] | 0.397
2 | COc1ccc(CCC(C)(C)O)cc1C(=O)NC1C2CCC(/C2=C/C2CCCOC2)[C@@H]1C(=O)Nc1ccc(F)c(C(F)(F)F)c1 (single isomer, unassigned) [Example 172, (7Z)-N-[4-fluoro-3-(trifluoromethyl)phe-nyl]-3-[5-(3-hydroxy-3-methylbutyl)-2-methoxybenzamido]-7-[(oxan-3-yl)methylidene]bicy-clo[2.2.1]heptane-2-carboxamide] | 0.039
3 | COc1ccc(CCC(C)(C)O)cc1C(=O)NC1C2CCC(/C2=C/C2CCCOC2)[C@@H]1C(=O)Nc1ccc(F)c(C(F)(F)F)c1 (single isomer, unassigned) [Example 173, (7Z)-N-[4-fluoro-3-(trifluoromethyl)phe-nyl]-3-[5-(3-hydroxy-3-methylbutyl)-2-methoxybenzamido]-7-[(oxan-3-yl)methylidene]bicy-clo[2.2.1]heptane-2-carboxamide] | 0.186
4 | COc1ccc(C23CCC(C(C)(C)O)(CC2)CC3)cc1C(=O)N[C@H]1[C@@H](C(=O)Nc2ccc(F)c(C(F)(F)F)c2)[C@H]2CC[C@@H]1/C2=C\C1CC1 (single isomer, unassigned) [Example 274] | 0.0998
5 | COc1ccc(C23CCC(C(C)(C)O)(CC2)CC3)cc1C(=O)N[C@H]1[C@@H](C(=O)Nc2ccc(F)c(C(F)(F)F)c2)[C@H]2CC[C@@H]1/C2=C\C1CC1 (single isomer, unassigned) [Example 276] | 2.6
6 | COc1ccc(C2CC2C(=O)N2CCC(O)CC2)cc1C(=O)N[C@H]1[C@@H](C(=O)Nc2ccc(F)c(C(F)(F)F)c2)[C@H]2CC[C@@H]1/C2=C\C1CC1 (single isomer, unassigned) [Example 321] | 0.0285
7 | COc1ccc(C2CC2C(=O)N2CCC(O)CC2)cc1C(=O)N[C@H]1[C@@H](C(=O)Nc2ccc(F)c(C(F)(F)F)c2)[C@H]2CC[C@@H]1/C2=C\C(F)(F)F (single isomer, unassigned) [Example 322] | 0.331
8 | COc1ccc(C2CC2C(=O)N2CCC(O)CC2)cc1C(=O)N[C@H]1[C@@H](C(=O)Nc2ccc(F)c(C(F)(F)F)c2)[C@H]2CC[C@@H]1/C2=C\C(F)(F)F (single isomer, unassigned) [Example 323] | 0.0215
9 | COc1ccc(C2CC2C(=O)N2CCC(O)CC2)cc1C(=O)N[C@H]1[C@@H](C(=O)Nc2ccc(F)c(C(F)(F)F)c2)[C@H]2CC[C@@H]1/C2=C\C1CC1 (single isomer, unassigned) [Example 324] | 0.00495
10 | COc1ccc(C2CC2C(=O)N2CCC(O)CC2)cc1C(=O)N[C@H]1[C@@H](C(=O)Nc2ccc(F)c(C(F)(F)F)c2)[C@H]2CC[C@@H]1/C2=C\C(F)(F)F (single isomer, unassigned) [Example 325] | 2.94
11 | COc1ccc(C2CC2C(=O)N2CCC(O)CC2)cc1C(=O)N[C@H]1[C@@H](C(=O)Nc2ccc(F)c(C(F)(F)F)c2)[C@H]2CC[C@@H]1/C2=C\C(F)(F)F (single isomer, unassigned) [Example 326] | 4.01
12 | COc1ccc(N(Cc2ccccc2)Cc2ccccc2)cc1C(=O)N[C@H]1[C@@H](C(=O)Nc2ccc(F)c(C(F)(F)F)c2)[C@H]2CC[C@@H]1/C2=C\C1CC1 [Example 1, (1R,2S,3R,4R,Z)-7-(cyclopropylmethylene)-3-(5-(dibenzylamino)-2-methoxybenzamido)-N-(4-fluoro-3-(trifluoromethyl)phenyl) bicyclo[2.2.1]heptane-2-carboxamide] | 0.675
13 | COc1ccc(Nc2ccccc2)cc1C(=O)N[C@H]1[C@@H](C(=O)Nc2ccc(F)c(C(F)(F)F)c2)[C@H]2CC[C@@H]1/C2=C\C1CC1 [Example 2, (1R,2S,3R,4R,Z)-7-(cyclopropylmethylene)-N-(4-fluoro-3-(trifluoromethyl)phenyl)-3-(2-methoxy-5-(phenylamino)benzamido) bicyclo[2.2.1]heptane-2-carboxamide] | 0.28

More lines, now with the values ahead:

Row | EC50 [µM] | Compound
14 | 0.0213 | COC(=O)C1CC(c2ccc(OC)c(C(=O)N[C@H]3[C@@H](C(=O)Nc4ccc(F)c(C(F)(F)F)c4)[C@H]4CC[C@@H]3/C4=C\C3CC3)c2)C1 (single isomer, unassigned) [Example 328]
15 | 0.112 | COC(=O)C1CC(c2ccc(OC)c(C(=O)N[C@H]3[C@@H](C(=O)Nc4ccc(F)c(C(F)(F)F)c4)[C@H]4CC[C@@H]3/C4=C\C3CC3)c2)C1 (single isomer, unassigned) [Example 332]
16 | 0.0785 | COc1ccc(C2CC3CC(O)CC32)cc1C(=O)N[C@H]1[C@@H](C(=O)Nc2ccc(F)c(C(F)(F)F)c2)[C@H]2CC[C@@H]1/C2=C\C1CC1 (single isomer, unassigned) [Example 340]
17 | 0.126 | COc1ccc(C2CC3CC(O)CC32)cc1C(=O)N[C@H]1[C@@H](C(=O)Nc2ccc(F)c(C(F)(F)F)c2)[C@H]2CC[C@@H]1/C2=C\C1CC1 (single isomer, unassigned) [Example 341]
18 | 0.0278 | COc1ccc(C2CC3CC(O)CC32)cc1C(=O)N[C@H]1[C@@H](C(=O)Nc2ccc(F)c(C(F)(F)F)c2)[C@H]2CC[C@@H]1/C2=C\C1CC1 (single isomer, unassigned) [Example 342]
19 | 0.0752 | COc1ccc(C2CC3CC(O)CC32)cc1C(=O)N[C@H]1[C@@H](C(=O)Nc2ccc(F)c(C(F)(F)F)c2)[C@H]2CC[C@@H]1/C2=C\C1CC1 (single isomer, unassigned) [Example 343]
20 | 0.034 | COc1ccc(C2CC3CC(CO)CC32)cc1C(=O)N[C@H]1[C@@H](C(=O)Nc2ccc(F)c(C(F)(F)F)c2)[C@H]2CC[C@@H]1/C2=C\C1CC1 (single isomer, unassigned) [Example 348]
21 | 0.0609 | COc1ccc(C2CC3CC(CO)CC32)cc1C(=O)N[C@H]1[C@@H](C(=O)Nc2ccc(F)c(C(F)(F)F)c2)[C@H]2CC[C@@H]1/C2=C\C1CC1 (single isomer, unassigned) [Example 349]
22 | 0.0177 | COc1ccc(C2CC3CC(CO)CC32)cc1C(=O)N[C@H]1[C@@H](C(=O)Nc2ccc(F)c(C(F)(F)F)c2)[C@H]2CC[C@@H]1/C2=C\C1CC1 (single isomer, unassigned) [Example 350]
23 | 0.0277 | COc1ccc(C2CC3CC(CO)CC32)cc1C(=O)N[C@H]1[C@@H](C(=O)Nc2ccc(F)c(C(F)(F)F)c2)[C@H]2CC[C@@H]1/C2=C\C1CC1 (single isomer, unassigned) [Example 351]
24 | 0.0499 | COc1ccc(C2CC3CC(CO)CC32)cc1C(=O)N[C@H]1[C@@H](C(=O)Nc2ccc(F)c(C(F)(F)F)c2)[C@H]2CC[C@@H]1/C2=C\C1CC1 (single isomer, unassigned) [Example 352]
